From patent publication US9555038B2, “Heterocycle-substituted tetracyclic compounds and methods of use thereof for the treatment of viral diseases” (Merck Sharp & Dohme Corp., priority 2013, dated 2017)
Like-named read-outs stand apart in the source and are kept apart here.

Legend:
[1] = test system: HCV replicon 1A; test: Cell-based HCV Replicon Assay A, replicon 1A
Procedure, shortened: (§1)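 Replicon cells seeded at 2000 cells/well with compound, 10 serial dilutions starting at 333.3 nM to 1.667 nM, 0.5% DMSO, 5% FBS, harvested on day 3. Replicon RNA measured by multiplex TaqMan RT-PCR with cyclophilin as endogenous control, quantified from standard curves of Ct vs log ng RNA.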

[2] = test system: HCV replicon 1B; test: Cell-based HCV Replicon Assay B, replicon 1B
Experimental: In an alternate assay (“Replicon Assay B”), 1000 cells were seeded per well in a 384-well collagen coated black plate from Greiner bio-one (Cat #781946) in 5% FBS. Inhibitors of this invention were added at 24 h post-seeding, and the plates were incubated for 3 days. Cells were subsequently lysed with Qiagen lysis buffer (Cat #1062731) to extract the RNA. HCV replicon RNA level was measured by real-time PCR using the RNA-to-CT kit from Applied Biosystem (Cat #4392656) and genotype-specific primers and probes. The amplicon was located within NS5B. The sequence of the PCR primers are as follows: 5B.2F, ATGGACAGGCGCCCTGA (SEQ. ID NO. 1); 5B.2R, […] (SEQ. ID NO. 2); the probe sequence was FAM-labeled CACGCCATGCGCTGCGG (SEQ. ID NO. 3). To detect genotype 1A the primer 1A F, TGCGGAACCGGTGAGTACA and 1A R, […] were used; the probe sequence was FAM-[…].
The real-time RT-PCR reactions were run on ABI PRISM 7900HT or Viia7 Sequence Detection System using the following program: 48° C. for 30 minutes, 95° C. for 10 minutes, 40 cycles of 95° C. for 15 sec, 60° C. for 1 minutes. The 50% effective concentration (EC50) was the drug concentration necessary to achieve an increase in the cycle threshold (CT) of 1 over the projected baseline CT.
Data was obtained for various compounds of the present invention using the methods described in the Example above, and is presented in the table immediately below. Data for replicons 1A, 1AY93H and 2B were obtained using Replicon Assay A and data for replicons 1AQ30D and 1B were obtained using Replicon Assay B.

[3] = test system: HCV replicon 1AY93H; test: Cell-based HCV Replicon Assay A, replicon 1AY93H
Procedure, shortened: as §1

[4] = test system: HCV replicon 2B; test: Cell-based HCV Replicon Assay A, replicon 2B
Procedure, shortened: as §1

[5] = Hepatitis C virus, read-out: 1A Y93H IC50 (nM), replicon 1AY93H
[6] = Hepatitis C virus, read-out: 2B IC50 (nM), replicon 2B
[7] = read-out: 1A Y93H IC50, replicon 1AY93H

SMILES	IC50 ([1]; Hepatitis C virus) [pM]	IC50 ([2]; Hepatitis C virus) [pM]	IC50 [3, 7] [nM]	IC50 ([4]; read-out: 2B IC50, replicon 2B) [nM]	IC50 [1] [pM]	IC50 [2] [pM]	also measured
COC(=O)N[C@H](C(=O)N1CCC[C@H]1c1ncc(-c2cc(F)c3c(c2)OC(c2nc(C4CC4)sc2C)n2c-3cc3cc(-c4cnc([C@@H]5CCCN5C(=O)[C@@H](NC(=O)OC)C(C)C)[nH]4)ccc32)[nH]1)C(C)C (mixture of isomers) [Compound 451]	2.5	2.7	–	–	–	–	–
COC(=O)N[C@H](C(=O)N1CCC[C@H]1c1ncc(-c2cc(F)c3c(c2)OC(c2csnn2)n2c-3cc3cc(-c4cnc([C@@H]5CCCN5C(=O)[C@@H](NC(=O)OC)C(C)C)[nH]4)ccc32)[nH]1)C(C)C (mixture of isomers) [Compound 501]	3.9	3.6	–	–	–	–	IC50 [3, 5]: 0.857 nM; IC50 [4, 6]: 1.32 nM
COCc1ncc(C2Oc3cc(-c4cnc([C@@H]5CCCN5C(=O)[C@@H](NC(=O)OC)C(C)C)[nH]4)cc(F)c3-c3cc4cc(-c5cnc([C@@H]6CCCN6C(=O)[C@@H](NC(=O)OC)C(C)C)[nH]5)ccc4n32)s1 (single isomer, unassigned) [Compound 17]	1.2	2	1.01	0.528	–	–	–
COC(=O)N[C@H](C(=O)N1CCC[C@H]1c1ncc(-c2cc(F)c3c(c2)OC(c2cnc(-c4ccc(OC)cc4)s2)n2c-3cc3cc(-c4cnc([C@@H]5CCCN5C(=O)[C@@H](NC(=O)OC)C(C)C)[nH]4)ccc32)[nH]1)C(C)C (single isomer, unassigned) [Compound 46]	–	–	0.534	0.252	1.8	1	–
CCCc1ncc(C2Oc3cc(-c4cnc([C@@H]5CCCN5C(=O)[C@@H](NC(=O)OC)C(C)C)[nH]4)cc(F)c3-c3cc4cc(-c5cnc([C@@H]6CCCN6C(=O)C(NC(=O)OC)C6CCOC(C)(C)C6)[nH]5)ccc4n32)s1 (single isomer, unassigned) [Compound 60]	–	–	0.4	0.184	4	4	–
COC(=O)NC(C(=O)N1CCC[C@H]1c1ncc(-c2ccc3c(c2)cc2n3C(c3cnc(C(C)(C)O)s3)Oc3cc(-c4cnc([C@@H]5CCCN5C(=O)[C@@H](NC(=O)OC)C(C)C)[nH]4)cc(F)c3-2)[nH]1)C1C[C@@H](C)O[C@@H](C)C1 (single isomer, unassigned) [Compound 73]	5.7	5	0.586	0.146	–	–	–
COC(=O)N[C@H](C(=O)N1CCC[C@H]1c1ncc(-c2cc(F)c3c(c2)OC(c2cnc(-c4ccc(F)cc4F)s2)n2c-3cc3cc(-c4cnc([C@@H]5CCCN5C(=O)[C@@H](NC(=O)OC)C(C)C)[nH]4)ccc32)[nH]1)C(C)C (single isomer, unassigned) [Compound 98]	2.7	1.2	0.01	0.003	–	–	–
COC(=O)NC(C(=O)N1CCC[C@H]1c1ncc(-c2ccc3c(c2)cc2n3C(c3cnc(C4CCCC4)s3)Oc3cc(-c4cnc([C@@H]5CCCN5C(=O)[C@@H](NC(=O)OC)C(C)C)[nH]4)cc(F)c3-2)[nH]1)C1CCOC(C)(C)C1 (single isomer, unassigned) [Compound 111]	2.2	2	–	–	–	–	IC50 [3, 5]: 0.005 nM; IC50 [4, 6]: 0.003 nM
CCc1nnc(C2Oc3cc(-c4cnc([C@@H]5CCCN5C(=O)[C@@H](NC(=O)OC)C(C)C)[nH]4)cc(F)c3-c3cc4cc(-c5cnc([C@@H]6CCCN6C(=O)C(NC(=O)OC)C(C)C)[nH]5)ccc4n32)s1 (single isomer, unassigned) [Compound 114]	–	3	–	–	2.7	–	–
COC(=O)N[C@H](C(=O)N1CCC[C@H]1c1ncc(-c2cc(C)c3c(c2)OC(c2cnc(C4CCC4)s2)n2c-3cc3cc(-c4cnc([C@@H]5C[C@H]6C[C@H]6N5C(=O)[C@@H](NC(=O)OC)C(C)C)[nH]4)ccc32)[nH]1)C(C)C (single isomer, unassigned) [Compound 207]	3	5	–	–	–	–	IC50 [3, 5]: 0.26 nM; IC50 [4, 6]: 0.25 nM
COC(=O)NC(C(=O)N1[C@@H]2C[C@@H]2C[C@H]1c1ncc(-c2ccc3c(c2)cc2n3C(c3cnc(C4CC4)s3)Oc3cc(-c4cnc([C@@H]5CCCN5C(=O)[C@@H](NC(=O)OC)C(C)C)[nH]4)cc(C)c3-2)[nH]1)C1C[C@@H](C)O[C@@H](C)C1 (single isomer, unassigned) [Compound 216]	2.4	4	0.292	0.086	–	–	–
COC(=O)N[C@H](C(=O)N1CCC[C@H]1c1ncc(-c2cc(F)c3c(c2)OC(c2cnc(C(C)(C)C)s2)n2c-3cc3cc(-c4cnc([C@@H]5CCCN5C(=O)[C@@H](NC(=O)OC)C(C)C)[nH]4)ccc32)[nH]1)C(C)C (single isomer, unassigned) [Compound 303]	–	–	0.0475	0.942	2.6	3	–
COC(=O)NC(C(=O)N1[C@@H]2C[C@@H]2C[C@H]1c1ncc(-c2ccc3c(c2)cc2n3C(c3cnc(C4CC4)s3)Oc3cc(-c4cnc([C@@H]5CCCN5C(=O)[C@@H](NC(=O)OC)C(C)C)[nH]4)cc(F)c3-2)[nH]1)C1C[C@@H](C)O[C@H](C)C1 (single isomer, unassigned) [Compound 312]	3.1	2	–	–	2.5	3	–
COC(=O)NC(C(=O)N1[C@@H]2C[C@@H]2C[C@H]1c1ncc(-c2ccc3c(c2)cc2n3C(c3cnc(C4CC4)s3)Oc3cc(-c4cnc([C@@H]5CCCN5C(=O)[C@@H](NC(=O)OC)C(C)C)[nH]4)cc(F)c3-2)[nH]1)C1CCOC(C)(C)C1 (single isomer, unassigned) [Compound 313]	3.2	45	–	0.122	–	–	IC50 [3, 5]: 0.231 nM
COC(=O)N[C@H](C(=O)N1CCC[C@H]1c1ncc(-c2cc(F)c3c(c2)OC(c2cnc(C4(C)CCCC4)s2)n2c-3cc3cc(-c4cnc([C@@H]5C[C@H]6C[C@H]6N5C(=O)[C@@H](NC(=O)OC)C(C)C)[nH]4)ccc32)[nH]1)C(C)C (single isomer, unassigned) [Compound 455]	–	–	0.981	–	1.7	3.4	–
COC(=O)N[C@H](C(=O)N1CCC[C@H]1c1ncc(-c2cc(F)c3c(c2)OC(c2cnc(C4CC4)s2)n2c-3c(C)c3cc(-c4cnc([C@@H]5CCCN5C(=O)[C@@H](NC(=O)OC)C(C)C)[nH]4)ccc32)[nH]1)C(C)C (single isomer, unassigned) [Compound 496]	–	–	–	–	6.9	3.5	–
COC(=O)N[C@H](C(=O)N1CCC[C@H]1c1ncc(-c2cc(F)c3c(c2)OC(c2cc(C)ns2)n2c-3cc3cc(-c4cnc([C@@H]5CCCN5C(=O)[C@@H](NC(=O)OC)C(C)C)[nH]4)ccc32)[nH]1)C(C)C (single isomer, unassigned) [Compound 502]	1.6	2.5	–	–	–	–	IC50 [4, 6]: 2.31 nM
COC(=O)N[C@H](C(=O)N1CCC[C@H]1c1ncc(-c2cc(F)c3c(c2)OC(c2sc(C(C)C)nc2C)n2c-3cc3cc(-c4cnc([C@@H]5CCCN5C(=O)[C@@H](NC(=O)OC)C(C)C)[nH]4)ccc32)[nH]1)C(C)C (single isomer, unassigned) [Compound 516]	–	–	3.22	–	1.7	2.6	–
COC(=O)N[C@H](C(=O)N1CCC[C@H]1c1ncc(-c2cc(F)c3c(c2)OC(c2cnc(C4CC4)s2)n2c-3cc3cc(-c4cnc([C@@H]5CC6(C)CC6N5C(=O)[C@@H](NC(=O)OC)C(C)C)[nH]4)ccc32)[nH]1)C(C)C (single isomer, unassigned) [Compound 520]	–	–	–	–	3.3	3.7	IC50 ([3]; replicon 1AY93H, read-out: 1A Y93H IC50): 2.71 nM
COC(=O)N[C@H](C(=O)N1CCC[C@H]1c1ncc(-c2cc(F)c3c(c2)OC(c2sc(C4CC4)nc2C2CC2)n2c-3cc3cc(-c4cnc([C@@H]5CCCN5C(=O)[C@@H](NC(=O)OC)C(C)C)[nH]4)ccc32)[nH]1)C(C)C (single isomer, unassigned) [Compound 525]	4.5	2.2	–	–	–	–	–
COC(=O)N[C@H](C(=O)N1CCC[C@H]1c1ncc(-c2cc(F)c3c(c2)OC(c2sc(C4CC4)nc2C2CC2)n2c-3cc3cc(-c4cnc([C@@H]5CCCN5C(=O)[C@@H](NC(=O)OC)C(C)C)[nH]4)ccc32)[nH]1)C(C)C (single isomer, unassigned) [Compound 526]	–	–	–	–	2.4	1.1	IC50 [4, 6]: 0.537 nM
COC(=O)NC(C(=O)N1CCC[C@H]1c1ncc(-c2ccc3c(c2)cc2n3C(c3nc4c(s3)CCC4)Oc3cc(-c4cnc([C@@H]5CCCN5C(=O)[C@@H](NC(=O)OC)C(C)C)[nH]4)cc(F)c3-2)[nH]1)C1CCOC(C)(C)C1 (single isomer, unassigned) [Compound 536]	–	–	–	–	2.3	2.7	IC50 ([4]; replicon 2B, read-out: 2B IC50): 0.029 nM
